Reference: US8754073B2, “Substituted piperazino-dihydrothienopyrimidines” (Boehringer Ingelheim International GmbH, priority 2007, dated 2014)
Structures can show the parent of a compound that is named as a salt.

target: PDE4B (Homo sapiens, UniProt Q07343); test: Scintillation Proximity Assay (SPA) of PDE4B enzyme activity ([H3]-cAMP cleavage); type: biochemical; conditions: test substance 1 μM; one-hour incubation of [H3]-cAMP with PDE4B enzyme at 30° C.
In short: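 Percent inhibition at 1 μM compound, measured against an uninhibited reaction. PDE4B hydrolysed tritiated cAMP for one hour at 30 °C, then scintillator beads were added to capture [H3]-5′-AMP. Light events were counted after 45 min bead settling.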

PDE4B, sequence (Q07343 whole entry, species assumed): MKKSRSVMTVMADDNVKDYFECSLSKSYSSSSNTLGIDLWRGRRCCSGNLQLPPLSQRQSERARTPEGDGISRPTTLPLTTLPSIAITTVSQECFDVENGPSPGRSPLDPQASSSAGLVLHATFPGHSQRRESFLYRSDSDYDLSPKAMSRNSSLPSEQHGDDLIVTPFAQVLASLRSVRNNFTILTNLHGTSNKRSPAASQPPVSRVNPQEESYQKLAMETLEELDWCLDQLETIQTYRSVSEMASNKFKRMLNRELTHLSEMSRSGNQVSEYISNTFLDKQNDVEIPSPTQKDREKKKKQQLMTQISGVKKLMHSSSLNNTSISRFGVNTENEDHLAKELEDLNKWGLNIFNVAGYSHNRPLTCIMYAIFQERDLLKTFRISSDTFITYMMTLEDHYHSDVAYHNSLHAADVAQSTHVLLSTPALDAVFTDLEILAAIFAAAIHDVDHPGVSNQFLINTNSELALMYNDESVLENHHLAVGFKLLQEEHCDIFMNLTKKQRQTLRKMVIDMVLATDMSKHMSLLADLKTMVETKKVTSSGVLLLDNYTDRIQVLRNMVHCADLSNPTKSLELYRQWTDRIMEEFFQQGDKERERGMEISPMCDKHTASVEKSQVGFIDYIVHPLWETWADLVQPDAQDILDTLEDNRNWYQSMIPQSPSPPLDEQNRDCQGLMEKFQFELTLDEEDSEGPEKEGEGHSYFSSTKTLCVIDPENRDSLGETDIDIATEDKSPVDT

SMILES	inhibition at 1 µM [%]
[O-][S+]1CCc2nc(N3CCC(c4noc5cc(F)ccc45)CC3)nc(Nc3cccc(F)c3)c21 (stereo not drawn) [Example 136]	95
[O-][S+]1CCc2nc(N3CCC(c4noc5ccc(F)cc45)CC3)nc(Nc3cccc(F)c3)c21 (stereo not drawn) [Example 137]	95
N#Cc1cccc(C2CCN(c3nc4c(c(Nc5cccc(F)c5)n3)[S+]([O-])CC4)CC2)c1 (stereo not drawn) [Example 138]	96
[O-][S+]1CCc2nc(N3CCC(c4nnc5ccccn45)CC3)nc(Nc3cccc(F)c3)c21 (stereo not drawn) [Example 139]	94
[O-][S+]1CCc2nc(N3CCC4(CC3)OCc3ccccc34)nc(Nc3cccc(F)c3)c21 (stereo not drawn) [Example 140]	83
[O-][S+]1CCc2nc(N3CCC(c4cc5ccccc5o4)CC3)nc(Nc3cccc(F)c3)c21 (stereo not drawn) [Example 141]	97
[O-][S+]1CCc2nc(N3CCC(c4ccc5ccccc5c4)CC3)nc(Nc3cccc(F)c3)c21 (stereo not drawn) [Example 142]	94
[O-][S+]1CCc2nc(N3CCC(c4nnc(-c5ccc(F)cc5)o4)CC3)nc(Nc3cccc(F)c3)c21 (stereo not drawn) [Example 143]	95
CC(C)c1noc(C2CCN(c3nc4c(c(Nc5cccc(F)c5)n3)[S+]([O-])CC4)CC2)n1 (stereo not drawn) [Example 144]	94
[O-][S+]1CCc2nc(N3CCC(c4cc(-c5ccco5)n[nH]4)CC3)nc(Nc3cccc(F)c3)c21 (stereo not drawn) [Example 145, (3-Fluorophenyl)-{2-[4-(5-Furan-2-Yl-2H-Pyrazol-3-Yl)-Piperidin-1-Yl]-5-Oxo-6,7-Dihydro-5H-5λ^4-Thieno[3,2-d]Pyrimidin-4-Yl}-Amine Trifluoracetat]	96
[O-][S+]1CCc2nc(N3CCC(c4nc(-c5cccnc5)no4)CC3)nc(Nc3cccc(F)c3)c21 (stereo not drawn) [Example 146]	96
[O-][S+]1CCc2nc(N3CCC(c4nc(-c5ccncc5)no4)CC3)nc(Nc3cccc(F)c3)c21 (stereo not drawn) [Example 147, (3-Fluorophenyl)-{5-Oxo-2-[4-(3-Pyridin-4-Yl-[1,2,4]Oxadiazol-5-Yl)-Piperidin-1-Yl]-6,7-Dihydro-5H-5λ^4-Thieno[3,2-d]Pyrimidin-4-Yl}-Amine Trifluoroacetate]	95
COc1ccc(C2CCN(c3nc4c(c(N[C@@H](CO)C(C)C)n3)[S+]([O-])CC4)CC2)cc1 (stereo partly drawn) [Example 148]	93
CC(C)[C@H](CO)Nc1nc(N2CCC(c3nc4cc(Cl)ccc4s3)CC2)nc2c1[S+]([O-])CC2 (stereo partly drawn) [Example 149]	94
COC(=O)c1ccc(C2CCN(c3nc4c(c(N[C@@H](CO)C(C)C)n3)[S+]([O-])CC4)CC2)cc1 (stereo partly drawn) [Example 150]	94
COC(=O)c1cccc(C2CCN(c3nc4c(c(N[C@@H](CO)C(C)C)n3)[S+]([O-])CC4)CC2)c1 (stereo partly drawn) [Example 151]	94
CC(C)[C@H](CO)Nc1nc(N2CCC(c3noc4cc(F)ccc34)CC2)nc2c1[S+]([O-])CC2 (stereo partly drawn) [Example 152]	95
CC(C)[C@H](CO)Nc1nc(N2CCC(c3noc4ccc(F)cc34)CC2)nc2c1[S+]([O-])CC2 (stereo partly drawn) [Example 153]	95
CC(C)[C@H](CO)Nc1nc(N2CCC(c3cccc(C#N)c3)CC2)nc2c1[S+]([O-])CC2 (stereo partly drawn) [Example 154]	92
CC(C)[C@H](CO)Nc1nc(N2CCC(c3nnc4ccccn34)CC2)nc2c1[S+]([O-])CC2 (stereo partly drawn) [Example 155]	83
CC(C)[C@H](CO)Nc1nc(N2CCC3(CC2)OCc2ccccc23)nc2c1[S+]([O-])CC2 (stereo partly drawn) [Example 156]	64
CC(C)[C@H](CO)Nc1nc(N2CCC(c3cc4ccccc4o3)CC2)nc2c1[S+]([O-])CC2 (stereo partly drawn) [Example 157]	96
CC(C)[C@H](CO)Nc1nc(N2CCC(c3ccc4ccccc4c3)CC2)nc2c1[S+]([O-])CC2 (stereo partly drawn) [Example 158]	94
CC(C)[C@H](CO)Nc1nc(N2CCC(c3nnc(-c4ccc(F)cc4)o3)CC2)nc2c1[S+]([O-])CC2 (stereo partly drawn) [Example 159]	94
CC(C)c1noc(C2CCN(c3nc4c(c(N[C@@H](CO)C(C)C)n3)[S+]([O-])CC4)CC2)n1 (stereo partly drawn) [Example 160]	86
CC(C)[C@H](CO)Nc1nc(N2CCC(c3cc(-c4ccco4)n[nH]3)CC2)nc2c1[S+]([O-])CC2 (stereo partly drawn) [Example 161, (R)-2-{2-[4-(5-Furan-2-Yl-2H-Pyrazol-3-Yl)-Piperidin-1-Yl]-5-Oxo-6,7-Dihydro-5H-5λ^4-Thieno[3,2-d]Pyrimidin-4-Ylamino}-3-Methylbutan-1-Ol Trifluoroacetate]	94
CC(C)[C@H](CO)Nc1nc(N2CCC(c3nc(-c4cccnc4)no3)CC2)nc2c1[S+]([O-])CC2 (stereo partly drawn) [Example 162]	92
CC(C)[C@H](CO)Nc1nc(N2CCC(c3nc(-c4ccncc4)no3)CC2)nc2c1[S+]([O-])CC2 (stereo partly drawn) [Example 163, (R)-3-Methyl-2-{5-Oxo-2-[4-(3-Pyridin-4-Yl-[1,2,4]Oxadiazol-5-Yl)-Piperidin-1-Yl]-6,7-Dihydro-5H-5λ^4-Thieno[3,2-d]Pyrimidin-4-Ylamino}-Butan-1-Ol Trifluoroacetate]	92

same assay, conditions: test substance 1 μM; one-hour incubation with [H3]-cAMP at 30° C.

SMILES	inhibition at 1 µM [%]
[O-][S+]1CCc2nc(N3CCC(Oc4ccc(F)cc4)CC3)nc(Nc3cccc(F)c3)c21 (stereo not drawn) [Example 165]	92
[O-][S+]1CCc2nc(N3CCC(Oc4ccc(F)cc4)CC3)nc(NC3(CO)CC3)c21 (stereo not drawn) [Example 167]	91
CC(C)[C@H](CO)Nc1nc(N2CCC(Oc3ccc(F)cc3)CC2)nc2c1[S+]([O-])CC2 (stereo partly drawn) [Example 168]	89
CN1C[C@@H](Nc2nc(N3CCC(Oc4ccc(F)cc4)CC3)nc3c2[S+]([O-])CC3)CCC1=O (stereo partly drawn) [Example 169]	92
CC(C)(O)C1(Nc2nc(N3CCC(c4ccc(Cl)cc4)CC3)nc3c2[S+]([O-])CC3)CC1 (stereo not drawn) [Example 185, 2-(1-{2-[4-(4-chlorophenyl)-piperidin-1-yl]-5-oxo-6,7-dihydro-5H-5λ^4-thieno[3,2-d]pyrimidin-4-ylamino}-cyclopropyl)-propan-2-ol]	94

Second part, the compound after the results:

inhibition at 1 µM [%]	SMILES
92	[O-][S+]1CCc2nc(N3CCC(c4ccccc4)CC3)nc(NC3(CO)CC3)c21 (stereo not drawn) [Example 164]
92	[O-][S+]1CCc2nc(N3CCC(Oc4ccc(F)cc4)CC3)nc(NC3CCOCC3)c21 (stereo not drawn) [Example 166]
77	COC1CCN(c2nc3c(c(NC4CCOCC4)n2)[S+]([O-])CC3)CC1 (stereo not drawn) [Example 170]
91	[O-][S+]1CCc2nc(N3CCC(OCc4ccccc4)CC3)nc(NC3CCOCC3)c21 (stereo not drawn) [Example 172]
95	[O-][S+]1CCc2nc(N3CCC(Oc4ccccn4)CC3)nc(NC3CCOCC3)c21 (stereo not drawn) [Example 173]
92	[O-][S+]1CCc2nc(N3CCC(Oc4ccc5c(c4)OCO5)CC3)nc(NC3CCOCC3)c21 (stereo not drawn) [Example 174]
89	[O-][S+]1CCc2nc(N3CCC(Oc4ccc(F)c(F)c4)CC3)nc(NC3CCOCC3)c21 (stereo not drawn) [Example 175]
93	COC(=O)c1ccc(OC2CCN(c3nc4c(c(NC5CCOCC5)n3)[S+]([O-])CC4)CC2)cc1 (stereo not drawn) [Example 176]
93	COC(=O)c1cccc(OC2CCN(c3nc4c(c(NC5CCOCC5)n3)[S+]([O-])CC4)CC2)c1 (stereo not drawn) [Example 177]
92	CCN(CC)CCOc1ccc(OC2CCN(c3nc4c(c(NC5CCOCC5)n3)[S+]([O-])CC4)CC2)cc1 (stereo not drawn) [Example 178, (2-{4-[4-(2-diethylamino-ethoxy)-phenoxy]-piperidin-1-yl}-5-oxo-6,7-dihydro-5H-5λ^4-thieno[3,2-d]pyrimidin-4-yl)-(tetrahydropyran-4-yl)-amine]
75	[O-][S+]1CCc2nc(N3CCC(Oc4ccccc4Cl)CC3)nc(NC3CCOCC3)c21 (stereo not drawn) [Example 179]
93	[O-][S+]1CCc2nc(N3CCC(Oc4ccc(C5=NCCO5)cc4)CC3)nc(NC3CCOCC3)c21 (stereo not drawn) [Example 180, (2-{4-[4-(4,5-dihydroxazol-2-yl)-phenoxy]-piperidin-1-yl}-5-oxo-6,7-dihydro-5H-5λ^4-thieno[3,2-d]pyrimidin-4-yl)-(tetrahydropyran-4-yl)-amine]
92	[O-][S+]1CCc2nc(N3CCC(Oc4ccc(Cl)c(Cl)c4)CC3)nc(NC3CCOCC3)c21 (stereo not drawn) [Example 181]
82	O=C(N1CCc2ccc(OC3CCN(c4nc5c(c(NC6CCOCC6)n4)[S+]([O-])CC5)CC3)cc2CC1)C(F)(F)F (stereo not drawn) [Example 182, 2,2,2-Trifluoro-1-(7-{1-[5-Oxo-4-(Tetrahydropyran-4-Ylamino)-6,7-Dihydro-5H-5λ^4-Thieno[3,2-d]Pyrimidin-2-Yl]-Piperidin-4-Yloxy}-1,2,4,5-Tetrahydrobenzo[d]Azepin-3-Yl)-Ethanone]
91	[O-][S+]1CCc2nc(N3CCC(Oc4ccc5c(c4)CCNCC5)CC3)nc(NC3CCOCC3)c21 (stereo not drawn) [Example 183, (5-Oxo-2-[4-(2,3,4,5-Tetrahydro-1H-Benzo[d]Azepin-7-Yloxy)-Piperidin-1-Yl]-6,7-Dihydro-5H-5λ^4-Thieno[3,2-d]Pyrimidin-4-Yl)-(Tetrahydropyran-4-Yl)-Amine]
92	O=C(O)c1ccc(OC2CCN(c3nc4c(c(NC5CCOCC5)n3)[S+]([O-])CC4)CC2)cc1 (stereo not drawn) [Example 184, 4-{1-[5-Oxo-4-(Tetrahydropyran-4-Ylamino)-6,7-Dihydro-5H-5λ^4-Thieno[3,2-d]Pyrimidin-2-Yl]-Piperidin-4-Yloxy}-Benzoic Acid]
96	CN1CCc2ccc(OC3CCN(c4nc5c(c(NC6CCOCC6)n4)[S+]([O-])CC5)CC3)cc2CC1 (stereo not drawn) [Example 186, (2-[4-(3-Methyl-2,3,4,5-Tetrahydro-1H-Benzo[d]Azepin-7-Yloxy)-Piperidin-1-Yl]-5-Oxo-6,7-Dihydro-5H-5λ^4-Thieno[3,2-d]Pyrimidin-4-Yl)-(Tetrahydropyran-4-Yl)-Amine]
98	CN1C[C@@H](Nc2nc(N3CCC(c4cc5ccccc5o4)CC3)nc3c2[S+]([O-])CC3)CCC1=O (stereo partly drawn) [Example 187]
